Molecular target: Isocitrate dehydrogenase [NADP] cytoplasmic (Homo sapiens, UniProt O75874, R132H)
Assay: Inhibition of IDH1 R132H mutant (unknown origin) using alpha-ketoglutarate and NADPH incubated for 60 mins by fluorescence based assay

Sequence of Isocitrate dehydrogenase [NADP] cytoplasmic (O75874 2-414 R132H limits assumed): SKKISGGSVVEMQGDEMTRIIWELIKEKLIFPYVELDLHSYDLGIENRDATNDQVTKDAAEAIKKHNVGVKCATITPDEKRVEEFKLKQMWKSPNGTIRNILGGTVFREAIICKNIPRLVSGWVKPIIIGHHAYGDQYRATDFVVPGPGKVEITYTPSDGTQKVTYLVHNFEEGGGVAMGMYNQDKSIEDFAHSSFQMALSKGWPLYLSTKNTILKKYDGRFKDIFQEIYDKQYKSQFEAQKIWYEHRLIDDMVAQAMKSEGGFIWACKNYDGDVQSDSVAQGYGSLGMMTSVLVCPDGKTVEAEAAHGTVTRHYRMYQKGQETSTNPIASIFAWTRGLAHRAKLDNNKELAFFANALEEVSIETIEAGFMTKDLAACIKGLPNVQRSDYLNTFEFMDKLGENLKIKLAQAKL

IC50 [µM]	SMILES
6.6	CC(C)CCOc1nc(N2C[C@@H]3[C@H](C2)[C@H]3C(=O)O)ccc1C(=O)NCc1ccc(O)cc1
17	CC(C)CCOc1nc(N2C[C@@H]3[C@H](C2)[C@H]3C(=O)O)ccc1C(=O)N(C)C1CCCCC1
5.6	CC(C)CCOc1nc(N2C[C@@H]3[C@H](C2)[C@H]3C(=O)O)ccc1C(=O)NCc1cccnc1
3.2	CC(C)CCOc1nc(N2C[C@@H]3[C@H](C2)[C@H]3C(=O)O)ccc1C(=O)Nc1cccc(CO)c1
0.81	CC(C)CCOc1nc(Nc2csc(C(=O)O)n2)ccc1C(=O)NC1C2CC3CC1CC(O)(C3)C2 (stereo unspecified)
> 50	CC(C)CCOc1nc(N2C[C@@H]3[C@H](C2)[C@H]3C(=O)O)ccc1C(=O)NC1C2CC3CC(C2)CC1C3 (stereo partly specified)
27	O=C(NC1C2CC3CC1CC(O)(C3)C2)c1ccc(N2C[C@@H]3[C@H](C2)[C@H]3C(=O)O)nc1OCc1ccccc1 (stereo partly specified)
10	O=C(O)C[C@@H]1CCCN(c2ccc(C(=O)NC3CCCCC3)c(OCc3cccc(F)c3)n2)C1
5.4	CC(C)CCOc1nc(N2C[C@@H]3[C@H](C2)[C@H]3C(=O)O)ccc1C(=O)Nc1cccc(NS(C)(=O)=O)c1
3.2	O=C(NC1C2CC3CC1CC(O)(C3)C2)c1ccc(N2C[C@@H]3[C@H](C2)[C@H]3C(=O)O)nc1OCc1ccccc1Cl (stereo partly specified)
9.4	CC(C)CCOc1nc(N2C[C@@H]3[C@H](C2)[C@H]3C(=O)O)ccc1C(=O)NCc1ccccc1
2.9	CC(C)CCOc1nc(N2C[C@@H]3[C@H](C2)[C@H]3C(=O)O)ccc1C(=O)Nc1cccc(O)c1
3.1	CC(C)CCOc1nc(N2C[C@@H]3[C@H](C2)[C@H]3C(=O)O)ccc1C(=O)NC[C@@H](O)c1ccccc1
8.6	CC(C)CCOc1nc(N2C[C@@H]3[C@H](C2)[C@H]3C(=O)O)ccc1NS(=O)(=O)C1CCCCC1
6.2	CC(C)CCOc1nc(N2C[C@@H]3[C@H](C2)[C@H]3C(=O)O)ccc1C(=O)NCc1ccncc1
5.6	CC(C)CCOc1nc(N2C[C@@H]3[C@H](C2)[C@H]3C(=O)O)ccc1C(=O)Nc1ccc(CO)cc1

IC50 [µM]	SMILES
4.5	Cc1ccccc1COc1nc(N2C[C@@H]3[C@H](C2)[C@H]3C(=O)O)ccc1C(=O)NC1C2CC3CC1CC(O)(C3)C2 (stereo partly specified)
4.6	Cc1cccc(COc2nc(N3CCC[C@@H](CC(=O)O)C3)ccc2C(=O)NC2CCCCC2)c1
> 50	CC(C)CCOc1nc(N2C[C@@H]3[C@H](C2)[C@H]3C(=O)O)ccc1NC(=O)C1CCCCC1
0.23	CC(C)CCOc1nc(N2C[C@@H]3[C@H](C2)[C@H]3C(=O)O)ccc1C(=O)NC(C)C1C2CC3CC1CC(O)(C3)C2 (stereo partly specified)
6.4	CC(C)CCOc1nc(N2CCC[C@@H](CC(=O)O)C2)ccc1C(=O)NC1CCCCC1
6	CC(C)CCOc1nc(N2C[C@@H]3[C@H](C2)[C@H]3C(=O)O)ccc1C(=O)Nc1cccc(C(N)=O)c1
5.8	Cc1ccccc1[C@@H](C)Oc1nc(N2CCC[C@@H](CC(=O)O)C2)ccc1C(=O)NC1CCCCC1
17	CC(C)CCOc1nc(N2C[C@@H]3[C@H](C2)[C@H]3C(=O)O)ccc1C(=O)NCc1ccc(Cl)cc1
3	CC(C)CCOc1nc(-c2ccc(C(=O)O)cc2)ccc1C(=O)NC1C2CC3CC1CC(O)(C3)C2 (stereo unspecified)
12	CC(C)CCOc1nc(N2C[C@@H]3[C@H](C2)[C@H]3C(=O)O)ccc1C(=O)N[C@H](CO)c1ccccc1
14	CC(C)CCOc1nc(N2C[C@@H]3[C@H](C2)[C@H]3C(=O)O)ccc1C(=O)NC1CC2CCC1C2 (stereo partly specified)
21	CC(C)CCOc1nc(Nc2coc(C(=O)O)n2)ccc1C(=O)NC1C2CC3CC1CC(O)(C3)C2 (stereo unspecified)
4.5	Cc1ccccc1COc1nc(N2CCC[C@@H](CC(=O)O)C2)ccc1C(=O)NC1CCCCC1
9.9	O=C(O)C[C@@H]1CCCN(c2ccc(C(=O)NC3CCCCC3)c(OCc3cccc(Cl)c3)n2)C1
12	COc1cccc(COc2nc(N3CCC[C@@H](CC(=O)O)C3)ccc2C(=O)NC2CCCCC2)c1
0.27	COC12CC3CC(C1)C(NC(=O)c1ccc(N4C[C@@H]5[C@H](C4)[C@H]5C(=O)O)nc1OCCC(C)C)C(C3)C2 (stereo partly specified)

Further lines, the molecule ahead of its results:

SMILES	IC50 [µM]
CC(C)COc1nc(N2CCC[C@@H](CC(=O)O)C2)ccc1C(=O)NC1CCCCC1	26
Cc1ccc(COc2nc(N3CCC[C@@H](CC(=O)O)C3)ccc2C(=O)NC2CCCCC2)cc1	> 50
O=C(O)C[C@@H]1CCCN(c2ccc(C(=O)NC3CCCCC3)c(OCC3CC3)n2)C1	30
O=C(O)C[C@@H]1CCCN(c2ccc(C(=O)NC3CCCCC3)c(OCCCC(F)(F)F)n2)C1	15
O=C(O)C[C@@H]1CCCN(c2ccc(C(=O)NC3CCCCC3)c(OC3CCOCC3)n2)C1	> 50
C[C@H](Oc1nc(N2CCC[C@@H](CC(=O)O)C2)ccc1C(=O)NC1CCCCC1)c1ccccc1	11
CC(Oc1nc(N2CCC[C@@H](CC(=O)O)C2)ccc1C(=O)NC1CCCCC1)C1CC1 (stereo partly specified)	20
O=C(O)C[C@@H]1CCCN(c2ccc(C(=O)NC3CCCCC3)c(OCC3CCC3)n2)C1	20
CC(C)CC(C)Oc1nc(N2CCC[C@@H](CC(=O)O)C2)ccc1C(=O)NC1CCCCC1 (stereo partly specified)	12
O=C(O)C[C@@H]1CCCN(c2ccc(C(=O)NC3CCCCC3)c(OC3CCCC3)n2)C1	12
O=C(O)C[C@@H]1CCCN(c2ccc(C(=O)NC3CCCCC3)c(NCC3CCCCC3)n2)C1	> 50
CC(C)=CCOc1nc(N2CCC[C@@H](CC(=O)O)C2)ccc1C(=O)NC1CCCCC1	14
CC(C)CCNc1nc(N2CCC[C@@H](CC(=O)O)C2)ccc1C(=O)NC1CCCCC1	> 50
CCC(C)(C)Oc1nc(N2CCC[C@@H](CC(=O)O)C2)ccc1C(=O)NC1CCCCC1	14
O=C(O)C[C@@H]1CCCN(c2ccc(C(=O)NC3CCCCC3)c(OCC3CCCCC3)n2)C1	9.7
CCCC(C)Oc1nc(N2CCC[C@@H](CC(=O)O)C2)ccc1C(=O)NC1CCCCC1 (stereo partly specified)	12
Cc1cc(Cl)ccc1COc1nc(N2CCC[C@@H](CC(=O)O)C2)ccc1C(=O)NC1CCCCC1	38
O=C(O)C[C@@H]1CCCN(c2ccc(C(=O)NC3C4CC5CC3CC(O)(C5)C4)c(OCc3ccccc3Cl)n2)C1 (stereo partly specified)	2.3
CC(C)CCSc1nc(N2CCC[C@@H](CC(=O)O)C2)ccc1C(=O)NC1CCCCC1	10
O=C(O)C[C@@H]1CCCN(c2ccc(C(=O)NC3CCCCC3)c(OCc3ccccc3)n2)C1	8.6
Cc1ccccc1CSc1nc(N2CCC[C@@H](CC(=O)O)C2)ccc1C(=O)NC1CCCCC1	> 50
O=C(O)C[C@@H]1CCCN(c2ccc(C(=O)NC3CCCCC3)c(OCc3ccccc3Cl)n2)C1	7
O=C(O)C[C@@H]1CCCN(c2ccc(C(=O)NC3CCCCC3)c(SCc3ccccc3F)n2)C1	21
O=C(O)C[C@@H]1CCCN(c2ccc(C(=O)NC3CCCCC3)c(OCc3ccc(F)cc3)n2)C1	8.8
COc1ccccc1COc1nc(N2CCC[C@@H](CC(=O)O)C2)ccc1C(=O)NC1CCCCC1	13
Cc1ccccc1CNc1nc(N2CCC[C@@H](CC(=O)O)C2)ccc1C(=O)NC1CCCCC1	> 50
O=C(O)C[C@@H]1CCCN(c2ccc(C(=O)NC3CCCCC3)c(OC3CCCCC3)n2)C1	12
COc1ccc(COc2nc(N3CCC[C@@H](CC(=O)O)C3)ccc2C(=O)NC2CCCCC2)cc1	> 50
O=C(O)C[C@@H]1CCCN(c2ccc(C(=O)NC3CCCCC3)c(OCc3ccc(Cl)cc3)n2)C1	7.7
